Measurements taken from patent US20120039820A1 (Glaxo Group Limited, priority 2009, published 2012).

Key:
Streptococcus mutans = test: MIC test (broth microdilution, turbidity); format: cell-based; conditions: TSB, 37° C., 24 hours
Description: (§1) The MIC of a material composition was determined by the following method. A fresh culture of the test inoculum of each bacterium was diluted in sterile 0.1% special peptone solution to give a concentration of approximately 10^6 colony forming units (cfu) per ml. Test samples of material were diluted in sterile tryptone soya broth (TSB) to give an initial stock solution, typically of 1% or 2% (10,000 or 20,000 ppm). However, it will be appreciated that the concentration of the initial stock solution of material can be varied if desired to investigate a different range of concentrations. Each row of a standard, 96-well plastic microtitre plate (labelled A-H) was allocated to one sample, i. e. eight samples per plate. Row H contained only TSB for use as a bacterial control to indicate the degree of turbidity resulting from bacterial growth in the absence of any test material.
(§2) Aseptically, 200 μl of the initial dilution of material was transferred to the 1st and 7th well of the appropriate row. All other test wells were filled with 100 μl of sterile TSB using an 8- channel micro-pipette. The contents of each of the wells in column 1 were mixed by sucking samples up and down the pipette tips, before 100 μl was transferred to column 2.
(§3) The same sterile pipette tips were used to transfer 100 μl of each well in column 7 into the appropriate well in column 8. This set of eight tips was then discarded into disinfectant solution. Using eight fresh, sterile tips the process was repeated by transferring 100 μl from column 2 into column 3 (and into 8 and 9). The process was continued until all the wells in columns 6 and 12 contained 200 μl. After mixing, 100 μl was discarded from wells in columns 6 and 12 to waste. Finally, 100 μl of pre-diluted bacterial test culture (approx 10^6 cfu/ml) was added, thus giving a final volume of 200 μl in each well.
(§4) A blank plate was prepared for each set of eight samples in exactly the same way, except that 100 μl of sterile TSB was added instead of the bacterial culture. This plate was used as the control plate against which the test plate (s) could be read.
(§5) Test and control plates were then sealed using autoclave tape and incubated at 37° C. for 24 hours. The wells were examined after 24 hours for turbidity to determine if the material had inhibited growth or not. Plates are then read in a suitable microtitre plate reader at an absorbance of 540 nm as a measure of turbidity resulting from bacterial growth. The control, un-inoculated plate for each set of samples was read first, and the plate reader then programmed to use the control readings to blank all other plate readings for the inoculated plates for the same set of test materials (i. e. removing turbidity due to material and possible colour changes during incubation). Thus, the corrected readings generated were absorbances resulting from turbidity from bacterial growth.

Escherichia coli = test: MIC test (broth microdilution, turbidity); format: cell-based; conditions: TSB, 37° C., 24 hours
Description: as §1, §2, §3, §4, §5

Staphylococcus aureus = test: MIC test (broth microdilution, turbidity); format: cell-based; conditions: TSB, 37° C., 24 hours
Description: as §1, §2, §3, §4, §5

S. aureus = test: Kill time suspension test; format: cell-based, Staphylococcus aureus
Description: This is set aside for approximately 2 minutes. 8 ml of test product is added, a timing clock started and immediately vortexed for 5 seconds.
To 8 ml of ‘Test Sample’ add 1 ml of sterile purified water and 1 ml of synthetic saliva. This is the ‘validation solution’.
The mean number of survivors is calculated for the each test and appropriate control samples, and expressed as the log to the base 10 (Log count).

Row | Compound | MIC (Streptococcus mutans) | MIC (Escherichia coli) | MIC (Staphylococcus aureus) | kill (in words) (S. aureus)
1 | zinc gluconate [Zn Gluconate] | 6250 parts per million | 1560 parts per million | 6250 parts per million | ineffective
2 | Cc1cc(O)ccc1C(C)C [IPMP, 4-isopropyl-3-methylphenol] | 1250 parts per million | 312 parts per million | 156 parts per million | 
